# Reference: US11299485B2, “Thiophene derivative and use thereof” (FUJIMOTO CO., LTD., priority 2018, dated 2022)
# Columns and labels:
# Format in all cases: cell-based
# Kasumi-7 cells = assay: Human acute lymphoblastic leukemia cell line Kasumi-7 proliferation suppression test; conditions: 72 h, compound 10 μM, 3 days, WST-8, read-out: cell survival rate (% of control) Kasumi-7
# Source text: Example 55: Human Acute Lymphoblastic Leukemia Cell Line Kasumi-7 Proliferation Suppression Test
# Kasumi-7 cells (NIBIOHN, JCRB1401) were suspended in 20% fetal calf serum (Thermo Fisher Scientific, Inc.)-containing RPMI1640 medium (ATCC, hereinafter abbreviated as medium C), and diluted as appropriate with 0.4% trypan blue solution (Sigma-Aldrich Co. LLC.). The number of viable cells was counted with a hemocytometer (Funakoshi Co., Ltd.). A cell suspension obtained by diluting with medium C such that the value obtained was 1.3×10^5 cells/mL was dispensed into a Falcon 96 well flat bottom plate (Corning Incorporated) at 75 μL/well, and culture was started at 37° C. under 5% CO2 stream. The next day, a solution obtained by diluting 4 mM DMSO solution of the test compound 100-fold with medium C was added by 25 μL to each well (final concentration of test compound 10 μM). 25 μL of a solution obtained by diluting DMSO 100-fold with medium C was added to the control well. After culturing at 37° C. in a 5% CO2 stream for 3 days, the cell proliferation activity was measured according to the instruction manual attached to WST-8 Kit (KISHIDA CHEMICAL Co., Ltd.).
# REC-1 cells = assay: Human mantle cell lymphoma cell line REC-1 proliferation suppression test; conditions: Rec1, 72 h, compound 10 μM, 3 days, WST-8, read-out: cell survival rate (% of control) REC-1
# Experimental: Example 53: Human Mantle Cell Lymphoma Cell Line REC-1 Proliferation Suppression Test
# (§1) REC-1 cells (ATCC, CRL-3004) were suspended in medium B, and diluted as appropriate with 0.4% trypan blue solution (Sigma-Aldrich Co. LLC.). The number of viable cells was counted with a hemocytometer (Funakoshi Co., Ltd.). A cell suspension obtained by diluting with medium B such that the value obtained was 1.3×10^5 cells/mL was dispensed into a Falcon 96 well flat bottom plate (Corning Incorporated) at 75 μL/well, and culture was started at 37° C. under 5% CO2 stream. The next day, a solution obtained by diluting 4 mM DMSO solution of the test compound 100-fold with medium B was added by 25 μL to each well (final concentration of test compound 10 μM). 25 μL of a solution obtained by diluting DMSO 100-fold with medium B was added to the control well. After culturing at 37° C. in a 5% CO2 stream for 3 days, the cell proliferation activity was measured according to the instruction manual attached to WST-8 Kit (KISHIDA CHEMICAL Co., Ltd.).
# Pfeiffer cells = assay: Human diffuse large B-cell lymphoma cell line Pfeiffer proliferation suppression test; conditions: 144 h, compound 10 μM, 3 days + re-plating with compound 3 days, WST-8, read-out: cell survival rate (% of control) Pfeiffer
# Source text: Example 52: Human Diffuse Large B-Cell Lymphoma Cell Line Pfeiffer Proliferation Suppression Test
# Pfeiffer cells (ATCC, CRL-2632) were suspended in medium B, and diluted as appropriate with 0.4% trypan blue solution (Sigma-Aldrich Co. LLC.). The number of viable cells was counted with a hemocytometer (Funakoshi Co., Ltd.). A cell suspension obtained by diluting with medium B such that the value obtained was 1.3×10^5 cells/mL was dispensed into a Falcon 96 well flat bottom plate (Corning Incorporated) at 75 μL/well, and culture was started at 37° C. under 5% CO2 stream. The next day, a solution obtained by diluting 4 mM DMSO solution of the test compound 100-fold with medium B was added by 25 μL to each well (final concentration of test compound 10 μM). 25 μL of a solution obtained by diluting DMSO 100-fold with medium B was added to the control well. After culturing at 37° C. in a 5% CO2 stream for 3 days, the cell culture medium was uniformly suspended with a multi channel pipette, 14 μL per well was transferred into another new Falcon 96 well flat bottom plate. A solution obtained by diluting 4 mM DMSO solution of the same test compound as the first time 400-fold with medium B was added by 86 μL to a total amount of 100 μL (final concentration of test compound 10 μM). After culturing at 37° C. in a 5% CO2 stream for 3 days, the cell proliferation activity was measured according to the instruction manual attached to WST-8 Kit (KISHIDA CHEMICAL Co., Ltd.).
# Daudi cells = assay: Human Burkitt lymphoma cell line Daudi proliferation suppression test; conditions: 72 h, compound 10 μM, 3 days, WST-8, read-out: cell survival rate (% of control) Daudi
# Source text: Example 54: Human Burkitt Lymphoma Cell Line Daudi Proliferation Suppression Test
# as §1, with “Daudi” for “REC-1”, “(National Institutes of Biomedical Innovation, Health and Nutrition (NIBIOHN), JCRB9071)” for “(ATCC, CRL-3004)”, “(ERMA INC.).” for “(Funakoshi Co., Ltd.).”
# MM.1S cells = assay: Human myeloma cell line MM.1S proliferation suppression test; conditions: MM1.S, 72 h, compound 10 μM, 3 days, WST-1 or WST-8, read-out: cell survival rate (% of control) MM.1S
# Experimental: Example 51: Human Myeloma Cell Line MM.1S Proliferation Suppression Test
# MM.1S cells (ATCC, CRL-2974) were suspended in 10% fetal calf serum (Thermo Fisher Scientific)-containing RPMI1640 medium (ATCC, hereinafter abbreviated as medium B), and diluted as appropriate with 0.4% trypan blue solution (Sigma-Aldrich Co. LLC.). The number of viable cells was counted with a hemocytometer (ERMA INC.). It was diluted with medium B such that the value obtained was 2×10^5 cells/mL. On the other hand, 50 μL of a solution obtained by diluting 4 mM DMSO solution of the test compound 200-fold with medium B was added to each well of a Falcon 96-well flat bottom plate (Corning Incorporated), and the above-mentioned cell suspension was dispensed at 50 μL/well (final concentration of test compound 10 μM). 50 μL of a solution obtained by diluting DMSO 200-fold with medium B was added to the control well. After culturing at 37° C. in a 5% CO2 stream for 3 days, the cell proliferation activity was measured using WST-1 (DOJINDO LABORATORIES) or WST-8 Kit (KISHIDA CHEMICAL Co., Ltd.) and according to each instruction manual attached thereto.
structure (smiles),measurement,setting,value
"O=C1CCC(N2C(=O)c3ccccc3C2=O)C(=O)N1 (centres unmarked) [Thalidomide, reference compound]",viability at 10 µM,Kasumi-7 cells,96%
same,viability at 10 µM,REC-1 cells,94%
same,viability at 10 µM,Pfeiffer cells,104%
same,viability at 10 µM,Daudi cells,81%
same,viability at 10 µM,MM.1S cells,79%
